Ends that are not written are not given here.
System: antibodies in sera from prostate cancer patients
Experiment: Prostate cancer serum test of cell surface protein peptides (Table 3)
Format: binding, human
Set-up: key: +: positive or negative reactivity between peptides representing modified peptide regions of cancer cell surface protein molecules with antibodies in sera from prostate cancer patients; −: positive or negative reactivity between peptides representing modified peptide regions of cancer cell surface protein molecules with antibodies in sera from prostate cancer patients
Conditions: reactivity of peptide with antibodies in sera from prostate cancer patients
Source text: Table 3 third column illustrates the positive or negative reactivity between peptides representing modified peptide regions of cancer cell surface protein molecules with antibodies in sera from prostate cancer patients. The presence or absence in prostate cancer cells of the 41 tested molecules is shown as + or − in column four.
Sixth, employing the immunoassays disclosed herein, each biotinylated peptide is screened as an antigen against sera or other relevant biological fluids containing antibodies taken from one of the following groups: cancer patients, patients with benign lesions or inflammatory conditions, and healthy subjects. Peptides can also be screened using tumor-infiltrating lymphocytes or peripheral blood-born lymphocytes from cancer patients. Candidate peptides we consider cancer-specific or cancer-associated depend on whether they fit the following definitions.

Substance	Prostate Cancer Serum Test Result
drNgt: Tested peptide of cell surface protein CD44 (DRNGT; not fully specified)	+
dtNrs: Tested peptide of cell surface protein erbB-2 (DTNRS; not fully specified)	+
vtNrs: Tested peptide of cell surface protein integrin beta I (VTNRS; not fully specified)	−
drNhs: Tested peptide of cell surface protein integrin alpha 2 (DRNHS; not fully specified)	−
diNss: Tested peptide of cell surface protein fgfr4 (DINSS; not fully specified)	−
heNct: Tested peptide of cell surface protein erbB-3 (HENCT; also: biotin label, end not given here)	−
seNdt: Tested peptide of cell surface protein protein-tyrosine phosphatase PCP-2 (SENDT; not fully specified)	−
teNqt: Tested peptide of cell surface protein integrin alpha (v) (TENQT; not fully specified)	−
vgNks: Tested peptide of cell surface protein hepatocyte gfr (VGNKS; not fully specified)	−
kaNts: Tested peptide of cell surface protein integrin alpha 5 (KANTS; also: biotin label at one end)	−
nkNvt: Tested peptide of cell surface protein integrin beta I (NKNVT; also: biotin label at one end)	+
ekNdt: Tested peptide of cell surface protein integrin alpha (v) (EKNDT; not fully specified)	−
leNht: Tested peptide of cell surface protein integrin alpha 3 (LENHT; also: biotin label at one end)	−
eyNts: Tested peptide of cell surface protein tgfr beta type II (EYNTS; not fully specified)	+
kaNtt: Tested peptide of cell surface protein integrin alpha (v) (KANTT; also: biotin label at one end)	−
skNfs: Tested peptide of cell surface protein integrin beta 3 (SKNFS; not fully specified)	−
evNss: Tested peptide of cell surface protein integrin beta 6 (EVNSS; not fully specified)	−
dkNls: Tested peptide of cell surface protein N-Cadherin (DKNLS; not fully specified)	+
kdNrt: Tested peptide of cell surface protein pdgfr beta (KDNRT; also: biotin label at one end)	−
sdNst: Tested peptide of cell surface protein CD53 (SDNST; not fully specified)	−
ghNes: Tested peptide of cell surface protein protein-tyrosine phosphatase kappa (GHNES; also: biotin label, end not given here)	−
rcNgs: Tested peptide of cell surface protein integrin beta 5 (RCNGS; not fully specified)	−
pdNdt: Tested peptide of cell surface protein insulin-like gf receptor (PDNDT; also: biotin label at one end)	−
crNvs: Tested peptide of cell surface protein erbB-1 (CRNVS; not fully specified)	−
seNas: Tested peptide of cell surface protein integrin alpha 1 (SENAS; not fully specified)	−
IrNes: Tested peptide of cell surface protein integrin alpha 5 (LRNES; not fully specified)	−
qkNss: Tested peptide of cell surface protein integrin beta 6 (QKNSS; also: biotin label at one end, end not given here)	−

Substance	Prostate Cancer Serum Test Result
nnNNss: Tested peptide of cell surface protein CD9 (NNNNSS; also: biotin label at one end)	−
spNhs: Tested peptide of cell surface protein CD44 (SPNHS; not fully specified)	−
vkNst: Tested peptide of cell surface protein E-Cadherin (VKNST; not fully specified)	+
qkNqt: Tested peptide of cell surface protein integrin alpha 9 (QKNQT; also: biotin label at one end, end not given here)	−
trNdt: Tested peptide of cell surface protein CD66 (TRNDT; not fully specified)	−
aeNct: Tested peptide of cell surface protein erbB-4 (AENCT; not fully specified)	−
knNht: Tested peptide of cell surface protein CD63 (KNNHT; also: biotin label at one end)	−
keNdt: Tested peptide of cell surface protein protein-tyrosine phosphatase kappa (KENDT; also: biotin label at one end)	−
rmNit: Tested peptide of cell surface protein integrin alpha 3 (RMNIT; not fully specified)	−
eeNns: Tested peptide of cell surface protein pdgfr alpha (EENNS; not fully specified)	−
gdNrt: Tested peptide of cell surface protein protein-tyrosine phosphatase kappa (GDNRT; also: biotin label, end not given here)	−
deNit: Tested peptide of cell surface protein tgfr beta type II (DENIT; not fully specified)	+
pdNct: Tested peptide of cell surface protein erbB-4 (PDNCT; also: biotin label at one end)	−
perNrt: Tested peptide of cell surface protein erbB-1 (PERNRT; also: biotin label at one end, end not given here)	−
pgNrt: Tested peptide of cell surface protein CD82 (PGNRT; also: biotin label at one end, end not given here)	−
drNht: Tested peptide of cell surface protein CD46 (DRNHT; not fully specified)	−
gtNkt: Tested peptide of cell surface protein CD40 (GTNKT; also: biotin label, end not given here)	+
mNtt: Tested peptide of cell surface protein insulin-like gf receptor	−
qdNkt: Tested peptide of cell surface protein integrin alpha (v) (QDNKT; also: biotin label at one end, end not given here)	+
hkNqt: Tested peptide of cell surface protein ICAM 1 (HKNQT; also: biotin label, end not given here)	−
NhSeg: Tested peptide of cell surface protein CD44 (NHSEG; not fully specified)	+
raNhs: Tested peptide of cell surface protein integrin alpha 6 (RANHS; not fully specified)	−
kiNat: Tested peptide of cell surface protein desmoglein 2 (KINAT; also: biotin label at one end)	−
daNkt: Tested peptide of cell surface protein erbB-1 (DANKT; not fully specified)	+
tkNgt: Tested peptide of cell surface protein desmoglein 1 (TKNGT; not fully specified)	−
qrNit: Tested peptide of cell surface protein integrin alpha 1 (QRNIT; not fully specified)	−
dkNst: Tested peptide of cell surface protein CD38 (DKNST; not fully specified)	−
